Laboratory results: ChEMBL document CHEMBL3885861, “Open TG-GATES”

Species on record: Rattus norvegicus
Experiment: Open TG-GATES - Regimen: Daily Repeat
Type: toxicity, organism-based, Sprague-Dawley
Design: regimen Daily Repeat, gender Male, age 6 weeks
Settings: in vivo, po, 100 mg/kg, route gavage, dose level Low; for APTT / Bas / Eos / Fbg / Hb / Ht / Lym / MCH / MCHC / MCV / Mono / Neu / PT / Plat / RBC / Ret / WBC: tissue Blood; for KIDNEY_L / KIDNEY_R / KIDNEY_TOTAL: tissue Kidney; for LIVER: tissue Liver; for A/G / ALP / ALT / AST / BUN / CRE / Ca / Cl / DBIL / GLC / IP / K / LDH / Na / PL / RALB / TBIL / TC / TG / TP / gamma-GTP: tissue Plasma

Compound: CN(C)[C@@H]1C(O)=C(C(N)=O)C(=O)[C@@]2(O)C(O)=C3C(=O)c4c(O)cccc4[C@@](C)(O)[C@H]3C[C@@H]12 [TETRACYCLINE]
- TERMINAL_BW (72 h, time 3 day): 197.6 g
- APTT (72 h, time 3 day): 16.3 s
- Bas (72 h, time 3 day): 0%
- Eos (72 h, time 3 day): 0.8%
- Fbg (72 h, time 3 day): 225.6 mg/dL
- Hb (72 h, time 3 day): 13.2 g/dL
- Ht (72 h, time 3 day): 39.6%
- Lym (72 h, time 3 day): 85%
- MCH (72 h, time 3 day): 21.7 pg
- MCHC (72 h, time 3 day): 33.4%
- MCV (72 h, time 3 day): 65.1 fL
- Mono (72 h, time 3 day): 5.2%
- Neu (72 h, time 3 day): 9%
- PT (72 h, time 3 day): 12.1 s
- Plat (72 h, time 3 day): 103.9 x10_4/uL
- RBC (72 h, time 3 day): 608.6 x10_4/ul
- Ret (72 h, time 3 day): 7.9%
- WBC (72 h, time 3 day): 100.3 x10_2/uL
- KIDNEY_L (72 h, time 3 day): 0.9 g
- KIDNEY_R (72 h, time 3 day): 0.9 g
- KIDNEY_TOTAL (72 h, time 3 day): 1.8 g
- LIVER (72 h, time 3 day): 9.3 g
- A/G (72 h, time 3 day): 2.1
- ALP (72 h, time 3 day): 900.4 IU/L
- ALT (72 h, time 3 day): 40.6 IU/L
- AST (72 h, time 3 day): 73.4 IU/L
- BUN (72 h, time 3 day): 16.8 mg/dL
- CRE (72 h, time 3 day): 0.6 mg/dL
- Ca (72 h, time 3 day): 11.2 mg/dL
- Cl (72 h, time 3 day): 106.4 meq/L
- DBIL (72 h, time 3 day): 0 mg/dL
- GLC (72 h, time 3 day): 195.6 mg/dL
- IP (72 h, time 3 day): 9 mg/dL
- K (72 h, time 3 day): 4.8 meq/L
- LDH (72 h, time 3 day): 134.4 IU/L
- Na (72 h, time 3 day): 140 meq/L
- PL (72 h, time 3 day): 145.2 mg/dL
- RALB (72 h, time 3 day): 3.9 g/dL
- TBIL (72 h, time 3 day): 0.3 mg/dL
- TC (72 h, time 3 day): 86.2 mg/dL
- TG (72 h, time 3 day): 48.8 mg/dL
- TP (72 h, time 3 day): 5.7 g/dL
- gamma-GTP (72 h, time 3 day): 0.8 IU/L
- TERMINAL_BW ([…], time 7 day): 227.4 g
- TERMINAL_BW ([…], time 14 day): 271.9 g
- TERMINAL_BW ([…], time 28 day): 346.9 g
- APTT ([…], time 7 day): 16.7 s
- Bas ([…], time 7 day): 0%
- Eos ([…], time 7 day): 1%
- Fbg ([…], time 7 day): 241 mg/dL
- Hb ([…], time 7 day): 13.5 g/dL
- Ht ([…], time 7 day): 40.2%
- Lym ([…], time 7 day): 85.2%
- MCH ([…], time 7 day): 21 pg
- MCHC ([…], time 7 day): 33.6%
- MCV ([…], time 7 day): 62.3 fL
- Mono ([…], time 7 day): 6.2%
- Neu ([…], time 7 day): 8%
- PT ([…], time 7 day): 12 s
- Plat ([…], time 7 day): 101.8 x10_4/uL
- RBC ([…], time 7 day): 645.8 x10_4/ul
- Ret ([…], time 7 day): 6.6%
- WBC ([…], time 7 day): 114 x10_2/uL
- APTT ([…], time 14 day): 16.5 s
- Bas ([…], time 14 day): 0%
- Eos ([…], time 14 day): 0.6%
- Fbg ([…], time 14 day): 229.6 mg/dL
- Hb ([…], time 14 day): 13.9 g/dL
- Ht ([…], time 14 day): 41.7%
- Lym ([…], time 14 day): 91.2%
- MCH ([…], time 14 day): 20.9 pg
- MCHC ([…], time 14 day): 33.5%
- MCV ([…], time 14 day): 62.5 fL
- Mono ([…], time 14 day): 2.4%
- Neu ([…], time 14 day): 6.2%
- PT ([…], time 14 day): 11.7 s
- Plat ([…], time 14 day): 108.7 x10_4/uL
- RBC ([…], time 14 day): 667.2 x10_4/ul
- Ret ([…], time 14 day): 5.5%
- WBC ([…], time 14 day): 180.6 x10_2/uL
- APTT ([…], time 28 day): 17.5 s
- Bas ([…], time 28 day): 0%
- Eos ([…], time 28 day): 1%
- Fbg ([…], time 28 day): 230.2 mg/dL
- Hb ([…], time 28 day): 14.8 g/dL
- Ht ([…], time 28 day): 44.5%
- Lym ([…], time 28 day): 90%
- MCH ([…], time 28 day): 19 pg
- MCHC ([…], time 28 day): 33.4%
- MCV ([…], time 28 day): 57.1 fL
- Mono ([…], time 28 day): 3.8%
- Neu ([…], time 28 day): 5.2%
- PT ([…], time 28 day): 12.1 s
- Plat ([…], time 28 day): 81 x10_4/uL
- RBC ([…], time 28 day): 780 x10_4/ul
- Ret ([…], time 28 day): 3.2%
- WBC ([…], time 28 day): 163.8 x10_2/uL
- KIDNEY_L ([…], time 7 day): 1 g
- KIDNEY_R ([…], time 7 day): 1.1 g
- KIDNEY_TOTAL ([…], time 7 day): 2.1 g
- KIDNEY_L ([…], time 14 day): 1.1 g
- KIDNEY_R ([…], time 14 day): 1.1 g
- KIDNEY_TOTAL ([…], time 14 day): 2.2 g
- KIDNEY_L ([…], time 28 day): 1.2 g
- KIDNEY_R ([…], time 28 day): 1.2 g
- KIDNEY_TOTAL ([…], time 28 day): 2.4 g
- LIVER ([…], time 7 day): 11.4 g
- LIVER ([…], time 14 day): 11.8 g
- LIVER ([…], time 28 day): 13.6 g
- A/G ([…], time 7 day): 2.1
- ALP ([…], time 7 day): 738 IU/L
- ALT ([…], time 7 day): 37.3 IU/L
- AST ([…], time 7 day): 71 IU/L
- BUN ([…], time 7 day): 19.7 mg/dL
- CRE ([…], time 7 day): 0.6 mg/dL
- Ca ([…], time 7 day): 11.4 mg/dL
- Cl ([…], time 7 day): 105 meq/L
- DBIL ([…], time 7 day): 0.0033 mg/dL
- GLC ([…], time 7 day): 181.3 mg/dL
- IP ([…], time 7 day): 9.9 mg/dL
- K ([…], time 7 day): 5 meq/L
- LDH ([…], time 7 day): 105.7 IU/L
- Na ([…], time 7 day): 140 meq/L
- PL ([…], time 7 day): 164.7 mg/dL
- RALB ([…], time 7 day): 3.9 g/dL
- TBIL ([…], time 7 day): 0.3 mg/dL
- TC ([…], time 7 day): 86.3 mg/dL
- TG ([…], time 7 day): 87.7 mg/dL
- TP ([…], time 7 day): 5.9 g/dL
- gamma-GTP ([…], time 7 day): 1.7 IU/L
- A/G ([…], time 14 day): 2.3
- ALP ([…], time 14 day): 983.4 IU/L
- ALT ([…], time 14 day): 35.8 IU/L
- AST ([…], time 14 day): 66.6 IU/L
- BUN ([…], time 14 day): 17.2 mg/dL
- CRE ([…], time 14 day): 0.6 mg/dL
- Ca ([…], time 14 day): 10.9 mg/dL
- Cl ([…], time 14 day): 104.4 meq/L
- DBIL ([…], time 14 day): 0.002 mg/dL
- GLC ([…], time 14 day): 177 mg/dL
- IP ([…], time 14 day): 8.3 mg/dL
- K ([…], time 14 day): 4.6 meq/L
- LDH ([…], time 14 day): 79.2 IU/L
- Na ([…], time 14 day): 141 meq/L
- PL ([…], time 14 day): 149.6 mg/dL
- RALB ([…], time 14 day): 4.1 g/dL
- TBIL ([…], time 14 day): 0.4 mg/dL
- TC ([…], time 14 day): 71 mg/dL
- TG ([…], time 14 day): 107.4 mg/dL
- TP ([…], time 14 day): 5.9 g/dL
- gamma-GTP ([…], time 14 day): 2.6 IU/L
- A/G ([…], time 28 day): 1.7
- ALP ([…], time 28 day): 765.4 IU/L
- ALT ([…], time 28 day): 30.2 IU/L
- AST ([…], time 28 day): 61.8 IU/L
- BUN ([…], time 28 day): 19.8 mg/dL
- CRE ([…], time 28 day): 0.6 mg/dL
- Ca ([…], time 28 day): 10.8 mg/dL
- Cl ([…], time 28 day): 107.2 meq/L
- DBIL ([…], time 28 day): 0.032 mg/dL
- GLC ([…], time 28 day): 173.8 mg/dL
- IP ([…], time 28 day): 7.5 mg/dL
- K ([…], time 28 day): 4.2 meq/L
- LDH ([…], time 28 day): 88.2 IU/L
- Na ([…], time 28 day): 141.4 meq/L
- PL ([…], time 28 day): 154 mg/dL
- RALB ([…], time 28 day): 3.8 g/dL
- TBIL ([…], time 28 day): 0.3 mg/dL
- TC ([…], time 28 day): 73.8 mg/dL
- TG ([…], time 28 day): 141.8 mg/dL
- TP ([…], time 28 day): 6.2 g/dL
- gamma-GTP ([…], time 28 day): 1.2 IU/L
